Six compounds from paper PMC9841589, “Identification of 2-Aminoacyl-1,3,4-thiadiazoles as Prostaglandin E2 and Leukotriene Biosynthesis Inhibitors” (ACS Medicinal Chemistry Letters, 2022) can be followed below.

For assay [1], the target named is T1, mPGES-1 (Homo sapiens, UniProt O14684).
T1 construct: endogenous in cells; host or cells: A549 cells stimulated with IL-1β; microsomal fraction
T1 sequence (O14684 1-152): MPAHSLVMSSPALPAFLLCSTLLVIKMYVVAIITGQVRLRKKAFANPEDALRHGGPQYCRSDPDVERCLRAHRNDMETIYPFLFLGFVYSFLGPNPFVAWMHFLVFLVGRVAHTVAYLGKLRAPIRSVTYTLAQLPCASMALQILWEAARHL
In words: Cell-free mPGES-1 activity assay (PGE2 biosynthesis). The format is biochemical. The following applies: 10 μM, percentage of control (100%), read-out: mPGES-1 residual activity at 10 μM (%). An excerpt: (Table 1). […] From the structural point of view, the biological affinities of compounds 3 and 7 (Figure 2A and C) could be positively affected by the 2-bromobenzoyl substituent able to accommodate in a deep binding pocket on the mPGES-1 surface. This moiety interacts by van der Waals contacts with amino acids of the cytoplasmic part and establishes π-stacking with Phe44ChainC and His53ChainC hydrogen bonds with Ser127, and a halogen bond between the bromine atom and the side chain of Aps49ChainC. Furthermore, the 3-phenylphenol and 2-aminobiphenyl moieties of 3 and 7 (Figure 2A and C), respectively, are able to establish a peculiar π-stacking with Tyr130ChainA and a hydrogen bond with Gln134ChainA. […]
mM glutathione, and 250 mM sucrose) and the protein concentration was defined. Potassium phosphate buffer (0.1 M, pH = 7.4) plus glutathione (2.5 mM) was added to dilute microsomes, which were then seeded in a 96-well plate. […]
preincubated for 15 min on ice. MK886 (10 µM) and MD-52 (1 µM) were used as reference drugs.
The reactions started by adding 20 µM of PGH2, and 1 min later, 100 µl of a solution containing FeCl3 (40 mM), citric acid (80 mM), and 11β-PGE 2 (10 µM) were added for stopping the conversion of PGH2. After the extraction of PGE2 and 11β-PGE 2 (internal stardard) by solid-phase extraction, […]

Assay [2] concerns zymosan-induced peritonitis. In words: Zymosan-induced peritonitis in mice. The format is in vivo, mouse. Particulars: 3 mg/kg i.p. On the procedure:
Figure 5 Effect of compound 3 in zymosan-induced peritonitis in mice. Mice were randomly divided into different experimental groups: control group (Ctrl), model group (zymosan + vehicle compound 3), zymosan + compound 3 (i.p. injection 30 min after i.p. injection of zymosan) group, and zymosan + dexamethasone (i.p. injection 30 min after i.p. injection of zymosan) group. At (A) 4 and (B) 24 h after injection, peritoneal exudate from each mouse was recovered, and the total cell number was evaluated. Results are expressed as mean ± SD. For statistical analysis see SI.
Figure 6 Analysis of cytokine levels collected in the peritoneal exudate of mice from different experimental groups: (A, B) IL-1β, (C, D) IL-6, (E, F) PGE2, and (G, H) IL-10. Results (normalized to exudate levels) are expressed as mean ± SD. For statistical analysis see SI.
Induction of peritonitis in mice and Enzyme-Linked Immunosorbent Assay (ELISA)
To examine the anti-inflammatory action of compound 3, we next evaluated the biological activity of
compound 3 in a mouse model of zymosan-induced peritonitis, as as previously described. 13,14 26, 27
To this aim, mice were randomly divided into different experimental groups: control group (Ctrl),
model group (zymosan + vehicle compound 3), zymosan + compound 3 (0.1, 1, and 10 mg/kg), and
zymosan + dexamethasone (3 mg/kg) group. Animals received the selected compound or
dexamethasone intraperitoneally (i.p.) 30 min after i.p. injection of zymosan (500 mg/kg)26, 27. Ctrl
and model groups received an equal volume of vehicle (PBS or DMSO/saline 1:3, respectively).
Peritoneal exudates were collected at selected time points (4 and 24 h) by washing the cavity with 2
mL of PBS. Then cell number of lavage fluids was determined by TC10 automated cell counter (Bio-
Rad, Milan, Italy) using disposable slides. The remaining lavage fluids were centrifuged at 3000 rpm
for 20 min at 4 °C, and supernatants were frozen at −80 °C for further ELISA analysis according to
the manufacturer instructions (eBioscience Co., San Diego, CA, USA)10 23 of IL-1β, IL-6, PGE 2 and
IL-10 following the procedure previously described15-17 28-30. Dexamethasone and zymosan A were
purchased from Sigma-Aldrich (Milan, Italy). DMSO was purchased from Merck (Italy). Unless
otherwise stated, all the other reagents were purchased from Carlo Erba (Milan, Italy).
The data and statistical analysis in this study comply with the international recommendations on
experimental design and analysis in preclinical pharmacology18-2031-33. The results obtained were
expressed as the mean ± S.D. or as mean ± S.E.M., as reported in detail in the figure legends. IC 50
values were calculated by nonlinear regression using GraphPad Prism Version 8.0 software (San
Diego, CA) one site binding competition. Statistical evaluation of the data was performed by one-

For `Cc1cc(C(=O)Nc2nnc(-c3ccc(-c4cccc(O)c4)cc3)s2)cc(Cl)n1` [compound 2], the remaining activity at 10 µM in assay [1] is more than 50%. As for `O=C(Nc1nnc(-c2ccc(-c3cccc(O)c3)cc2)s1)c1cc(F)ccc1F` [compound 4], in assay [1], the remaining activity at 10 µM is more than 50%. On the same count and under the same terms, in the case of `Nc1ccccc1-c1ccc(-c2nnc(NC(=O)c3cc(F)ccc3F)s2)cc1` [compound 8] it was more than 50%.

With `Cc1ccoc1C(=O)Nc1nnc(-c2ccc(-c3cccc(O)c3)cc2)s1` [compound 1], the remaining activity at 10 µM in assay [1] is more than 50%. For `C[C@@H]1C[C@H]2[C@@H]3CCC4=CC(=O)C=C[C@]4(C)[C@@]3(F)[C@@H](O)C[C@]2(C)[C@@]1(O)C(=O)CO` [dexamethasone, reference compound], in assay [2] (4 and 24 h), the “IL-1β level in peritoneal exudate” value is given as “more prominent effect”, the “IL-6 level in peritoneal exudate” value is “more prominent effect”, the “IL-10 level in peritoneal exudate” value is “more prominent effect” and the “PGE2 level in peritoneal exudate” value is “more prominent effect”. Moreover, in assay [2] (4 h (P ≤ 0.005) and 24 h (P ≤ 0.01)), the “leukocyte numbers in the peritoneal cavity” value is “significantly reduced”. In the case of `Cc1ccoc1C(=O)Nc1nnc(-c2ccc(-c3ccccc3N)cc2)s1` [compound 5], the remaining activity at 10 µM in assay [1] was more than 25%.
